The values that follow come from article PMC6934184, “Selective DNA-PKcs inhibition extends the therapeutic index of localized radiotherapy and chemotherapy” (The Journal of Clinical Investigation, 2019).

This test concerns the target T1, FGFR3 (Homo sapiens, UniProt P22607).
T1 construct: purchased Thermo Fisher Scientific (Life Technologies) SelectScreen
Description: SelectScreen Z'LYTE. Format: biochemical. The essentials:
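SelectScreen broad panel; activity (Z'LYTE, Adapta) plus binding formats. ATP: Km app for CSF1R Z'LYTE; 10 for CAMK1 Adapta. Readout = % per kinase.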

T1 sequence (P22607 23-806): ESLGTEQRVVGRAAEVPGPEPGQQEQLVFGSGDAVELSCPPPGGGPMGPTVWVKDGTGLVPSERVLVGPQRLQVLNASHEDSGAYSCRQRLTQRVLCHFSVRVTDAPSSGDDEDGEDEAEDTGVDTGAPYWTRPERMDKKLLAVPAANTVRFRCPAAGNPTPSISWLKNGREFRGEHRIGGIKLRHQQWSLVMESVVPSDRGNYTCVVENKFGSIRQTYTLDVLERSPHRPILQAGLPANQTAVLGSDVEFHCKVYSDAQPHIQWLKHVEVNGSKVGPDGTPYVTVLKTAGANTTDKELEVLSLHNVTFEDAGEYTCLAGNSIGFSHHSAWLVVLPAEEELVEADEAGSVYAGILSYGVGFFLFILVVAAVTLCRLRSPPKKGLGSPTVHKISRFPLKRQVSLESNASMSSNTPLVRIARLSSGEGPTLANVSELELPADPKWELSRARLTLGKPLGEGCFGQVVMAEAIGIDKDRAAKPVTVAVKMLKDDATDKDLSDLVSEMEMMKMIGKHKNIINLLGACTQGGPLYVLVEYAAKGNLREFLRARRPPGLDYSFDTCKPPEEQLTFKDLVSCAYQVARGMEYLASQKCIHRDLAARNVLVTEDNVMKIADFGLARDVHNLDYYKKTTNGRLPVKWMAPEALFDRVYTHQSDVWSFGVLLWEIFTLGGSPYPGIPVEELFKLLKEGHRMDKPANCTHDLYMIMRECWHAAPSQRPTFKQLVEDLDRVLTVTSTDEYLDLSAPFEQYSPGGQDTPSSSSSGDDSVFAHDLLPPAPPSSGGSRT

`CN(C(=O)CN1CCOCC1)c1ccc2sc3c(-c4cccc5c(=O)cc(N6CC7CCC(C6)O7)oc45)cccc3c2c1` [NU5455]: the inhibition at 1 µM is 0.9%.

One may read the inhibition as the percentage by which the read-out fell short of the control.
